Laboratory results reported in patent publication US20220062240A1, “METHODS OF TREATING CANCER USING A CLK INHIBITOR” (BioSplice Therapeutics, Inc., priority 2018, published 2022).
Read-outs that look alike come from different tables or passages of the source.

Legend:
[1] = molecular target: CLK3 (Homo sapiens, UniProt P49761); test: CLK3 kinase activity assay (Z-lyte, Ser/Thr 18 peptide)
Experimental: Each compound was dissolved in DMSO as a 10 mM stock and used to prepare compound source plates.
This is a non-radioactive assay using fluorescence resonance energy transfer (FRET) between coumarin and fluorescein to detect kinase activity which is represented as a ratio of coumarin emission/fluorescein emission.
All reactions were performed in duplicate. Unphosphorylated (“0% Control”) and phosphorylated (“100% control”) forms of Ser/Thr 18 served as control reactions. Additionally, an 11-point dose-response curve of Staurosporine (1 uM top) was run to serve as a positive compound control.
After incubation, Development Reagent A was diluted in Development Buffer then added to the reaction and allowed to further incubate for one hour at room temperature.
Dose-response curves were generated and inhibitory concentration (IC50) values were calculated using non-linear regression curve fit in the Dotmatics' Studies Software (Bishops Stortford, UK).
Compounds were acoustically transferred on 1536-well plates (Echo 550, LabCyte) instrument. Kinase, peptide, and ATP reagents from the Z′-LYTE Kinase Assay Kits (Thermo Fisher) were dispensed onto the compound plates using an EL406 liquid dispenser (BioTek). Plates were incubated in the dark at room temperature for 1 hr. Development reagent was added to the plates and then incubated in the dark at room temperature for 1 hr. Fluorescence signal form the plate was then read using an EnVision Multilabel Plate Reader (Perkin Elmer).

[2] = molecular target: T1, CLK2 (Homo sapiens, UniProt P49760); test: CLK2 kinase activity assay (Z-lyte, Ser/Thr 6 peptide); format: biochemical; details: recombinant CLK2 kinase, ATP 60 μM; read-out: EC50
T1 construct: purchased Thermo Fisher (Life Technologies), Z'-LYTE Kinase Assay Kits
T1 sequence (P49760 whole entry): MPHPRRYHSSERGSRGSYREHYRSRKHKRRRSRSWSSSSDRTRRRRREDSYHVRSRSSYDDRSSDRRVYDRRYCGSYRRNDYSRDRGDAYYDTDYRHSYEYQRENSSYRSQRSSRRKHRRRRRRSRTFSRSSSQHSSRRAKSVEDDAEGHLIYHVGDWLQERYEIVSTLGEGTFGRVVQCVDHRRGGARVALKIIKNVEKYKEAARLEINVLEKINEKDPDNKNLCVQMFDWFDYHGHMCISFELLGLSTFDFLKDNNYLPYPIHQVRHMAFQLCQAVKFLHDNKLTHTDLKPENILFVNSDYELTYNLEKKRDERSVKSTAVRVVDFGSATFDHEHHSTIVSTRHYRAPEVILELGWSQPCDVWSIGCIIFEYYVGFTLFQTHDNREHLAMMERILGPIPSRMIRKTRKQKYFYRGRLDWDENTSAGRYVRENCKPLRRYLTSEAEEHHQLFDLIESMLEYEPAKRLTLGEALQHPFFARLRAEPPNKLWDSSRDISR
Experimental: All reactions were performed in duplicate.

[3] = test system: colorectal cancer (6 cell lines); test: CellTiter-Glo Viability Assay, colorectal cancer; format: cell-based; details: Homo sapiens, inhibition of cancer cell proliferation
[4] = test system: ovarian cancer (4 cell lines); test: CellTiter-Glo Viability Assay, ovarian cancer; format: cell-based; details: Homo sapiens, inhibition of cancer cell proliferation
[5] = test system: T47D; test: CellTiter-Glo Viability Assay, breast cancer; format: cell-based; details: Homo sapiens, 96 h, breast cancer, four days, read-out: EC50
[6] = test system: DU4475; test: CellTiter-Glo Viability Assay, breast cancer; format: cell-based; details: Homo sapiens, DU-4475, 96 h; DU4475, breast cancer, four days; read-out: EC50
[7] = test system: HCC1599; test: CellTiter-Glo Viability Assay, breast cancer; format: cell-based; details: Homo sapiens, 96 h; HCC1599, breast cancer, four days; read-out: EC50
[8] = test system: BT-549; test: CellTiter-Glo Viability Assay, breast cancer; format: cell-based; details: Homo sapiens, 96 h; BT-549, breast cancer, four days; read-out: EC50
[9] = test system: MDA-MB-231-Luc; test: CellTiter-Glo Viability Assay, breast cancer; format: cell-based; details: Homo sapiens, 96 h; MDA-MB-231-Luc, breast cancer, four days; read-out: EC50
[10] = test system: CAMA1; test: CellTiter-Glo Viability Assay, breast cancer; format: cell-based; details: Homo sapiens, CAMA-1, 96 h; CAMA1, breast cancer, four days; read-out: EC50
[11] = test system: ZR-75-1; test: CellTiter-Glo Viability Assay, breast cancer; format: cell-based; details: Homo sapiens, 96 h; ZR-75-1, breast cancer, four days; read-out: EC50
[12] = test system: MCF7; test: CellTiter-Glo Viability Assay, breast cancer; format: cell-based; details: Homo sapiens, 96 h; MCF7, breast cancer, four days; read-out: EC50
[13] = test system: all 50 cell lines; test: CellTiter-Glo Viability Assay, average across all cell lines; format: cell-based; details: Homo sapiens; across all 50 cell lines; read-out: average EC50 for inhibition of cancer cell proliferation
Summary of the method: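 Human cancer cell lines from breast, colorectal, haematopoietic/lymphoid, liver, lung, ovarian, pancreatic and prostate tumours were seeded at 300-3,000 cells/well and exposed to compound in duplicate for four days at 37° C, 5% CO2. Viable cells were measured by ATP luminescence; EC50 values came from dose-response curves.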

[14] = test system: lung cancer (4 cell lines); test: CellTiter-Glo Viability Assay, lung cancer; format: cell-based; details: Homo sapiens, inhibition of cancer cell proliferation
[15] = test system: pancreatic cancer (8 cell lines); test: CellTiter-Glo Viability Assay, pancreatic cancer; format: cell-based; details: Homo sapiens, inhibition of cancer cell proliferation
[16] = test system: haematopoietic & lymphoid tumors (13 cell lines); test: CellTiter-Glo Viability Assay, haematopoietic & lymphoid tumors; format: cell-based; details: Homo sapiens, inhibition of cancer cell proliferation
[17] = test system: prostate cancer (5 cell lines); test: CellTiter-Glo Viability Assay, prostate cancer; format: cell-based; details: Homo sapiens
[18] = test system: liver cancer (3 cell lines); test: CellTiter-Glo Viability Assay, liver cancer; format: cell-based; details: Homo sapiens, inhibition of cancer cell proliferation

Sequence of CLK3 (P49761 whole entry): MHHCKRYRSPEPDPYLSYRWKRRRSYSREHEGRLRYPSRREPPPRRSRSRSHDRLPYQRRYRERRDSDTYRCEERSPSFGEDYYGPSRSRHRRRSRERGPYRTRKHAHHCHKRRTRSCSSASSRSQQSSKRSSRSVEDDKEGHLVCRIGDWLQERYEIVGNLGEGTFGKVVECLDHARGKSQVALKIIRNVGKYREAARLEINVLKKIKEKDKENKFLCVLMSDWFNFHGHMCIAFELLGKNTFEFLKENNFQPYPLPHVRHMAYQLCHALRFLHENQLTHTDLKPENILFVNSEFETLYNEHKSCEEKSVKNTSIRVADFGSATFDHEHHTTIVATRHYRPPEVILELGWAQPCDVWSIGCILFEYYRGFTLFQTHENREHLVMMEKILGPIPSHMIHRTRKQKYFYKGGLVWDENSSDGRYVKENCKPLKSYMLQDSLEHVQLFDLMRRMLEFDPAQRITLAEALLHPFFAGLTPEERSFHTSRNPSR

- EC50 [1]: 13.6 nM
- EC50 [2]: 2.9 nM
- EC50 ([3]; HCT-116, HCT116 cell line, read-out: Colorectal cancer, EC50 (μM) HCT116): 0.102 µM
- EC50 ([3]; HT-29, HT29 cell line, read-out: Colorectal cancer, EC50 (μM) HT29): 0.182 µM
- EC50 ([3]; SW-620, SW620 cell line, read-out: Colorectal cancer, EC50 (μM) SW620): 0.065 µM
- EC50 ([3]; DLD-1 cell line, read-out: Colorectal cancer, EC50 (μM) DLD-1): 0.145 µM
- EC50 ([3]; SW48 cell line, read-out: Colorectal cancer, EC50 (μM) SW48): 0.058 µM
- EC50 ([3]; SW480 cell line, read-out: Colorectal cancer, EC50 (μM) SW480): 0.117 µM
- EC50 ([4]; PA-1, PA1 cell line, read-out: Ovarian cancer, EC50 (μM) PA1): 0.17 µM
- EC50 ([4]; TOV112D, TOV-112D cell line, read-out: Ovarian cancer, EC50 (μM) TOV-112D): 0.121 µM
- EC50 ([4]; OV-90 cell line, read-out: Ovarian cancer, EC50 (μM) OV-90): 0.234 µM
- EC50 ([4]; OVCAR-3 cell line, read-out: Ovarian cancer, EC50 (μM) OVCAR-3): 0.11 µM
- EC50 [5]: 253 nM
- EC50 [6]: 145 nM
- EC50 [7]: 99 nM
- EC50 [8]: 176 nM
- EC50 [9]: 193 nM
- EC50 [10]: 304 nM
- EC50 [11]: 220 nM
- EC50 [12]: 491 nM
- EC50 ([14]; A-427, A427 cell line, read-out: Lung cancer, EC50 (μM) A427): 0.275 µM
- EC50 ([14]; HCC78, HCC-78 cell line, read-out: Lung cancer, EC50 (μM) HCC-78): 0.173 µM
- EC50 ([14]; NCI-H460 cell line, read-out: Lung cancer, EC50 (μM) NCI-H460): 0.197 µM
- EC50 ([14]; NCI-H522 cell line, read-out: Lung cancer, EC50 (μM) NCI-H522): 0.105 µM
- EC50 ([15]; BXPC-3, BxPC3 cell line, read-out: Pancreatic cancer, EC50 BxPC3): 254 nM
- EC50 ([15]; CAPAN-1, Capan1 cell line, read-out: Pancreatic cancer, EC50 Capan1): 198 nM
- EC50 ([15]; Capan-2, Capan2 cell line, read-out: Pancreatic cancer, EC50 Capan2): 321 nM
- EC50 ([15]; MIA PaCa-2 cell line, read-out: Pancreatic cancer, EC50 MIA PaCa-2): 91 nM
- EC50 ([15]; PANC 05.04 cell line, read-out: Pancreatic cancer, EC50 PANC 05.04): 169 nM
- EC50 ([15]; PANC-1 cell line, read-out: Pancreatic cancer, EC50 PANC-1): 291 nM
- EC50 ([15]; UPAFII cell line, read-out: Pancreatic cancer, EC50 UPAFII): 140 nM
- EC50 ([16]; DND41, DND-41 cell line, read-out: Haematopoietic & Lymphoid tumors, EC50 (μM) DND-41): 0.185 µM
- EC50 ([16]; MV4-11, MV-4-11 cell line, read-out: Haematopoietic & Lymphoid tumors, EC50 (μM) MV-4-11): 0.033 µM
- EC50 ([16]; Rec1, REC-1 cell line, read-out: Haematopoietic & Lymphoid tumors, EC50 (μM) REC-1): 0.065 µM
- EC50 ([16]; SU-DHL-4, SUDHL4 cell line, read-out: Haematopoietic & Lymphoid tumors, EC50 (μM) SUDHL4): 0.151 µM
- EC50 ([16]; HL-60 cell line, read-out: Haematopoietic & Lymphoid tumors, EC50 (μM) HL-60): 0.409 µM
- EC50 ([16]; JM1 cell line, read-out: Haematopoietic & Lymphoid tumors, EC50 (μM) JM1): 0.064 µM
- EC50 ([16]; JURKAT, Clone E6-1 cell line, read-out: Haematopoietic & Lymphoid tumors, EC50 (μM) JURKAT, Clone E6-1): 0.353 µM
- EC50 ([16]; JeKo-1 cell line, read-out: Haematopoietic & Lymphoid tumors, EC50 (μM) JeKo-1): 0.064 µM
- EC50 ([16]; KASUMI-1 cell line, read-out: Haematopoietic & Lymphoid tumors, EC50 (μM) KASUMI-1): 0.129 µM
- EC50 ([16]; Loucy cell line, read-out: Haematopoietic & Lymphoid tumors, EC50 (μM) Loucy): 0.135 µM
- EC50 ([16]; MOLT-4 cell line, read-out: Haematopoietic & Lymphoid tumors, EC50 (μM) MOLT-4): 0.196 µM
- EC50 ([16]; TF-1 cell line, read-out: Haematopoietic & Lymphoid tumors, EC50 (μM) TF-1): 0.256 µM
- EC50 ([16]; TOLEDO cell line, read-out: Haematopoietic & Lymphoid tumors, EC50 (μM) TOLEDO): 0.087 µM
- EC50 ([17]; DU-145, read-out: Prostate cancer EC50 Du-145): 199 nM
- EC50 ([17]; PC-3, PC3 cell line, inhibition of cancer cell proliferation, read-out: Prostate cancer EC50 PC3): 195 nM
- EC50 ([17]; 22Rv1 cell line, inhibition of cancer cell proliferation, read-out: Prostate cancer EC50 22Rv1): 140 nM
- EC50 ([17]; LNCap clone FGC cell line, inhibition of cancer cell proliferation, read-out: Prostate cancer EC50 LNCap clone FGC): 330 nM
- EC50 ([17]; VCaP (Sigma) cell line, inhibition of cancer cell proliferation, read-out: Prostate cancer EC50 VCaP (Sigma)): 255 nM
- EC50 ([18]; SNU-398, SNU398 cell line, read-out: Liver cancer, EC50 SNU398): 50 nM
- EC50 ([18]; HEPG2 cell line, read-out: Liver cancer, EC50 HEPG2): 107 nM
- EC50 ([18]; PLC/PRF/5 cell line, read-out: Liver cancer, EC50 PLC/PRF/5): 314 nM
Compound: Cc1ncc(-c2ccc3cnc(NC(=O)c4cnn(C5CCN(C)CC5)c4)cc3c2)o1 [Compound 83]
- EC50 [13]: 182 nM
